Measurements published in patent publication US8865750B2, “Small molecule inhibitors of RGS proteins” (The Regents of The University of Michigan, priority 2011, dated 2014).
Like-named read-outs stand apart in the source and are kept apart here.

Key:
RGS4 = assay: FCPIA: Gαo binding to RGS4; conditions: for RGS4 Hill Slope: Table 3; for IC50: read-out: RGS4 IC50; for activity at RGS4: FCPIA
From the text: (§1) FCPIA Dose Response and Reversibility Experiments:

RGS8 = RGS8 (Homo sapiens (Human), UniProt P57771); assay: FCPIA: Gαo binding to RGS8; conditions: for RGS8 Hill Slope: Table 3; for IC50: read-out: RGS8 IC50
From the text: as §1

HEK293 cells = assay: Calcium mobilization induced by compound alone; format: cell-based; conditions: Homo sapiens, HEK293; read-out: Calcium transient (% 50014);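 note: percent of response to 10 µM reference CCG-50014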
Protocol: Calcium Mobilization Experiments:
A stable cell line was developed based upon the HEK-293 Flp-In TREx cell line (Invitrogen, Carlsbad, Calif.) that stably express the muscarinic M3 receptor and have human RGS4 expression under doxycycline control. Cells were maintained in DMEM supplemented with 10% fetal bovine serum and Penicillin (100 units/ml)-Streptomycin (100 μg/ml) under 5% CO2 at 37° C. For experiments, cells were split into 96-well black, clear bottom, poly-D-lysine coated microtiter plates (Nunc, Cat. #152037) at a density of 20,000 cells/well in DMEM containing 10% fetal bovine serum and Penicillin (100 units/ml), Streptomycin (100 μg/ml). RGS4 expression was induced by supplementing the medium with 1 μg/mL doxycycline for 24-48 hours before experimentation. Cells were loaded with Fluo-4 No Wash dye in buffer for 30 minutes at 37° C. Compounds and/or carbachol were added to the wells and the fluorescence intensity was measured using a FlexStation (Molecular Devices, Sunnyvale, Calif.) plate reader. Data analysis was performed by calculating the area under the curve or maximal fluorescence intensity from a 120 second kinetic measurement.

[1] = Table 3, duplex FCPIA, average of two experiments
[2] = Table 2, mean of two independent FCPIA experiments

RGS8, sequence (P57771 other isoform, or with tags, fused parts or gaps): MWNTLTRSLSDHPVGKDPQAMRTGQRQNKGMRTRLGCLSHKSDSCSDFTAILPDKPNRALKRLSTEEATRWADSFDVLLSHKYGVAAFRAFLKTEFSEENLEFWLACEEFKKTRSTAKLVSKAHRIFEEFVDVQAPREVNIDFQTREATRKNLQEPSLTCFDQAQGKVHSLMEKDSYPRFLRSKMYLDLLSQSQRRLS

## Cc1ccc(Cn2c(=O)sn(-c3ccc(Cl)cc3)c2=O)cc1 [S10, 2-(4-chlorophenyl)-4-(4-methylbenzyl)-1,2,4-thiadiazolidine-3,5-dione]
RGS4
  RGS4 Hill Slope: −1.59
RGS8
  RGS8 Hill Slope: −1.17
RGS8; [1]
  IC50: 12.8 µM
RGS8; Table 6, FCPIA
  IC50: 12.8 µM
HEK293 cells
  Emax at 10 µM: 20%

## Cc1ccc(Cn2sc(=O)n(Cc3ccc(C)cc3)c2=O)cc1 [S13, 2,4-bis(4-methylbenzyl)-1,2,4-thiadiazolidine-3,5-dione]
RGS4
  RGS4 Hill Slope: −0.92
RGS8
  RGS8 Hill Slope: −0.51
RGS8; [1]
  IC50: 94.7 µM
RGS8; Table 6, FCPIA
  IC50: 94.7 µM
HEK293 cells
  Emax at 10 µM: 251%

## CCCCn1c(=O)sn(C(C)(C)C)c1=O [CCG-203768, 2-t-butyl-4-butyl-1,2,4-thiadiazolidine-3,5-dione]
RGS4
  RGS4 Hill Slope: −3.18
RGS4; [1]
  IC50: 0.054 µM
RGS8
  RGS8 Hill Slope: −0.70
RGS8; [1]
  IC50: 119 µM
HEK293 cells
  Emax at 10 µM: 91.7%

## COc1ccc(Cn2c(=O)sn(-c3ccc(Cl)cc3)c2=O)cc1 [S25, 2-(4-chlorophenyl)-4-(4-methoxybenzyl)-1,2,4-thiadiazolidine-3,5-dione]
RGS4
  RGS4 Hill Slope: −3.26
RGS8
  RGS8 Hill Slope: −0.73
RGS8; [1]
  IC50: 9.9 µM
RGS8; Table 6, FCPIA
  IC50: 9.9 µM
HEK293 cells
  Emax at 10 µM: 84.6%

## Cc1ccc(C2=CC(=O)N(Cc3ccccc3)C2=O)cc1 [compound 15, 1-benzyl-3-p-tolyl-1H-pyrrole-2,5-dione]
RGS4
  activity at RGS4: Neither 14 or 15 displayed activity at RGS4

## O=c1sn(-c2ccccc2)c(=O)n1Cc1ccc(F)cc1 [CCG-203726, 2-phenyl-4-(4-fluorobenzyl)-1,2,4-thiadiazolidine-3,5-dione]
RGS4
  RGS4 Hill Slope: −1.42
RGS4; [1]
  IC50: 0.016 µM
RGS8
  RGS8 Hill Slope: −0.82
RGS8; Table 6, FCPIA
  IC50: 6.2 µM
HEK293 cells
  Emax at 10 µM: 20.9%

## Cc1cccc(Cn2c(=O)sn(-c3ccccc3)c2=O)c1 [S19, 2-phenyl-4-(3-methylbenzyl)-1,2,4-thiadiazolidine-3,5-dione]
RGS4
  RGS4 Hill Slope: −1.65
RGS8
  RGS8 Hill Slope: −1.17
RGS8; [1]
  IC50: 8.4 µM
RGS8; Table 6, FCPIA
  IC50: 8.4 µM
HEK293 cells
  Emax at 10 µM: 243%

## O=c1sn(-c2cccc(C(F)(F)F)c2)c(=O)n1Cc1ccc(F)cc1 [CCG-203775, 2-(3-trifluoromethylphenyl)-4-(4-fluorobenzyl)-1,2,4-thiadiazolidine-3,5-dione]
RGS4
  RGS4 Hill Slope: −0.88
RGS4; [1]
  IC50: 0.079 µM
RGS8
  RGS8 Hill Slope: −1.14
RGS8; [1]
  IC50: 16.2 µM
HEK293 cells
  Emax at 10 µM: 170%

## COc1ccc(-n2sc(=O)n(Cc3ccc(Cl)c(Cl)c3)c2=O)cc1 [S31, 2-(4-methoxyphenyl)-4-(3,4-dichlorobenzyl)-1,2,4-thiadiazolidine-3,5-dione]
RGS4
  RGS4 Hill Slope: −0.86
RGS8
  RGS8 Hill Slope: −0.64
RGS8; [1]
  IC50: 5.9 µM
RGS8; Table 6, FCPIA
  IC50: 5.9 µM
HEK293 cells
  Emax at 10 µM: 202%

## O=c1sn(-c2ccc(Cl)c(Cl)c2)c(=O)n1Cc1ccc(Cl)c(Cl)c1 [S32, 2-(3,4-dichlorophenyl)-4-(3,4-dichlorobenzyl)-1,2,4-thiadiazolidine-3,5-dione]
RGS4
  RGS4 Hill Slope: −0.87
RGS8
  RGS8 Hill Slope: −0.85
RGS8; [1]
  IC50: 125 µM
RGS8; Table 6, FCPIA
  IC50: 125 µM
HEK293 cells
  Emax at 10 µM: 49.6%

## COc1ccc(Cn2c(=O)sn(-c3ccccc3)c2=O)cc1 [S24, 2-phenyl-4-(4-methoxybenzyl)-1,2,4-thiadiazolidine-3,5-dione]
RGS4
  RGS4 Hill Slope: −1.78
RGS8
  RGS8 Hill Slope: −0.77
RGS8; [1]
  IC50: 7.2 µM
RGS8; Table 6, FCPIA
  IC50: 7.2 µM
HEK293 cells
  Emax at 10 µM: 18.6%

## Cc1ccc(-n2sc(=O)n(Cc3cccc(C)c3)c2=O)cc1 [CCG-203782, 2-(4-methylphenyl)-4-(3-methylbenzyl)-1,2,4-thiadiazolidine-3,5-dione]
RGS4; Table 6, FCPIA
  IC50: 0.0145 µM
RGS8; Table 6, FCPIA
  IC50: 9.9 µM

## Cc1cccc(Cn2c(=O)sn(-c3cccc(Cl)c3)c2=O)c1 [S22, 2-(3-chlorophenyl)-4-(3-methylbenzyl)-1,2,4-thiadiazolidine-3,5-dione]
RGS8; Table 6, FCPIA
  IC50: 31 µM

## O=c1sn(-c2ccccc2)c(=O)n1Cc1cccc(Cl)c1 [S14, 2-phenyl-4-(3-chlorobenzyl)-1,2,4-thiadiazolidine-3,5-dione]
RGS4
  RGS4 Hill Slope: −1.41
RGS8
  RGS8 Hill Slope: −1.47
RGS8; [1]
  IC50: 9.4 µM
RGS8; Table 6, FCPIA
  IC50: 9.4 µM
HEK293 cells
  Emax at 10 µM: 57.7%

## Cc1ccc(C2=CC(=O)N(Cc3ccccc3)C2=O)cc1 [CCG-203779]
RGS4; [2]
  IC50: 93 µM

## CCn1sc(=O)n(C)c1=O [CCG-203758, 2-ethyl-4-methyl-1,2,4-thiadiazolidine-3,5-dione]
RGS4; Table 6, FCPIA
  IC50: 0.0223 µM
RGS8; Table 6, FCPIA
  IC50: 37 µM

## Cc1cccc(Cn2c(=O)sn(-c3cccc(C(F)(F)F)c3)c2=O)c1 [S23, 2-(3-trifluoromethylphenyl)-4-(3-methylbenzyl)-1,2,4-thiadiazolidine-3,5-dione]
RGS8
  RGS8 Hill Slope: −1.03
RGS8; [1]
  IC50: 15.9 µM
RGS8; Table 6, FCPIA
  IC50: 15.9 µM
HEK293 cells
  Emax at 10 µM: 65.2%

## Cc1ccc(Cn2c(=O)sn(-c3ccc(Cl)c(Cl)c3)c2=O)cc1 [S!2, 2-(3,4-dichlorophenyl)-4-(4-methylbenzyl)-1,2,4-thiadiazolidine-3,5-dione]
RGS8; Table 6, FCPIA
  IC50: 175 µM

## CC(C)(C)c1ccc(-n2sc(=O)n(Cc3ccc(F)cc3)c2=O)cc1 [S1, 2-(4-t-butylphenyl)-4-(4-fluorobenzyl)-1,2,4-thiadiazolidine-3,5-dione]
RGS8; Table 6, FCPIA
  IC50: 50.4 µM

## O=c1sn(-c2ccc(Cl)c(Cl)c2)c(=O)n1Cc1ccc(Cl)cc1 [S7, 2-(3,4-dichlorophenyl)-4-(4-chlorobenzyl)-1,2,4-thiadiazolidine-3,5-dione]
RGS8; Table 6, FCPIA
  IC50: 43.2 µM

## O=c1sn(-c2cccc(C(F)(F)F)c2)c(=O)n1Cc1cccc(Cl)c1 [S18, 2-(3-trifluoromethylphenyl)-4-(3-chlorobenzyl)-1,2,4-thiadiazolidine-3,5-dione]
RGS8; Table 6, FCPIA
  IC50: 16.2 µM

## CC(C)(C)c1ccc(-n2sc(=O)n(Cc3cccc(Cl)c3)c2=O)cc1 [S15, 2-(4-t-butylphenyl)-4-(3-chlorobenzyl)-1,2,4-thiadiazolidine-3,5-dione]
RGS8; Table 6, FCPIA
  IC50: 32.2 µM

## Cc1ccc(CN2C(=O)CN(c3ccc(C)cc3)C2=O)cc1 [compound 14, 3-(4-methylbenzyl)-1-p-tolylimidazolidine-2,4-dione]
RGS4
  activity at RGS4: Neither 14 or 15 displayed activity at RGS4
RGS4; Table 6, FCPIA
  IC50: > 100 µM
RGS8; Table 6, FCPIA
  IC50: > 100 µM

## CCn1sc(=O)n(Cc2ccc(F)cc2)c1=O [CCG-203766, 2-ethyl-4-(4-fluorobenzyl)-1,2,4-thiadiazolidine-3,5-dione]
RGS4; Table 6, FCPIA
  IC50: 0.0223 µM
RGS8; Table 6, FCPIA
  IC50: 18.7 µM

## COc1ccc(-n2sc(=O)n(Cc3ccc(C)cc3)c2=O)cc1 [S11, 2-(4-methoxyphenyl)-4-(4-methylbenzyl)-1,2,4-thiadiazolidine-3,5-dione]
RGS8; Table 6, FCPIA
  IC50: 6.6 µM

## COc1ccc(Cn2c(=O)sn(-c3ccc(C)cc3)c2=O)cc1 [CCG-203754, 2-p-tolyl-4-(4-methoxybenzyl)-1,2,4-thiadiazolidine-3,5-dione]
RGS8; Table 6, FCPIA
  IC50: 312 µM

## Cc1cccc(Cn2c(=O)sn(-c3ccc(C(C)(C)C)cc3)c2=O)c1 [S20, 2-(4-t-butylphenyl)-4-(3-methylbenzyl)-1,2,4-thiadiazolidine-3,5-dione]
RGS8; Table 6, FCPIA
  IC50: 17.8 µM

## O=c1sn(-c2ccccc2)c(=O)n1Cc1ccc(Cl)cc1 [S4, 2-phenyl-4-(4-chlorobenzyl)-1,2,4-thiadiazolidine-3,5-dione]
RGS8; Table 6, FCPIA
  IC50: 7.5 µM

## Cc1ccc(CN2C(=O)CN(c3ccc(C)cc3)C2=O)cc1 [CCG-203778]
RGS4; [2]
  IC50: > 100 µM
RGS8; [2]
  IC50: > 100 µM
